# Reference: US12653903B2, “Nanoparticle and use thereof for the combinatorial therapy of endoplasmic reticulum stress inducer and immunotherapeutic to tumors and immune cells” (National Yang Ming Chiao Tung University, priority 2023, dated 2026)
# Test system: Panc-02 cells
# Conditions: concentration used as equivalent CB dose
# Description: Panc-02 cells or NIT-cells were seeded in 96-well plates. Cells were treated with various miR or CB-loaded SLNs formulations. TCA was used to fix the cells after treatment. The wells were then stained with sulforhodamine B (SRB) and rapidly rinsed with acetic acid. Following air drying. Tris base was added to each well, and the plates were examined using an ELISA reader. Cell viability (%)=(The absorbance value of treated cells)(The absorbance value of untreated cells)×100
smiles,measurement,value
"Cc1cc2c(C(N)=O)cccc2n1-c1nc2c(c(NCc3ccccc3)n1)COCC2 [CB, CB-5083]",IC30,210 nM
